Experimental data published in the METLIN SMRT retention time set (Domingo-Almenara et al. 2019).

Experiment: gradient 5% acetonitrile 3 min, to 50% in 2 min, to 85% in 15 min, held 3 min, 100 µL/min
Details: column: Zorbax Extend-C18 2.1 x 50 mm; eluents: water / acetonitrile, 0.1% formic acid
How it was run: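 Pure standards were run in mixtures of ~100 molecules by HPLC coupled to a quadrupole time-of-flight mass spectrometer. The column was a Zorbax Extend-C18 (2.1 × 50 mm, 1.8 μm) at 100 μL/min, with water and acetonitrile each containing 0.1% formic acid, in positive and negative ionization mode. Dead and dwell volumes were 40 μL and 900 μL. Retention time was taken from computationally picked adduct peaks, each manually inspected, with data collected over 3 months.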

SMILES | RP-LC retention time [s]
O=C(NCCOc1ccc2c(c1)OCO2)c1ccccc1Cl | 785
Cc1cc(C(=O)NCc2ccc(Cl)cc2)n(-c2ccccc2)n1 | 878
O=S(=O)(Nc1ccc2c(c1)OCCO2)c1ccc2nncn2c1 | 660
CCCCN1CC(c2nc3ccccc3n2CC(=O)N2CCOCC2)CC1=O (configuration not stated) | 598
Cc1nc(-c2csc(S(=O)(=O)N3CCC(C(=O)NCc4ccccn4)CC3)c2)no1 | 636
CCN1C(=O)NC(c2ccc(C)cc2C)C2=C1CN(CCC(=O)N1CCOCC1)C2=O (configuration not stated) | 614
Cc1ccccc1CNC(=O)C1(C)CCN(S(=O)(=O)c2ccc(F)cc2)CC1 | 925
c1csc(-c2nc(-c3ccc4c(c3)ncn4CCN3CCCCC3)no2)c1 | 626
Cc1ccc(NC(=O)CN2C(=O)COc3ccc(C(=O)N(C)C)cc32)nc1 | 612
CCOc1ccc2ncc(C(=O)c3ccccc3)c(N3CCN(C)CC3)c2c1 | 527
O=C(Nc1ccc(-c2cn3ccccc3n2)cc1)c1ccc([N+](=O)[O-])cc1 | 586
COc1ccc(C(=O)N2C[C@@H]3C[C@H](NC(=O)c4cccs4)[C@H]2C3)cn1 | 679
COC(=O)c1c(NCCCN2CCCC2)c2cccc(Cl)c2[nH]c1=O | 550
COc1ccc(N2C(=O)C3N=NN(Cc4nc(-c5ccc(Cl)cc5)no4)C3C2=O)cc1 (configuration not stated) | 1000
O=C(C1CC(=O)N(c2cccc(-c3noc(C4CCC4)n3)c2)C1)N1CCN(c2ccccc2)CC1 (configuration not stated) | 1010
CCOC(=O)C1CCc2sc(NC(=O)c3cc(-c4cccs4)[nH]n3)nc21 (configuration not stated) | 835
O=C(NCC(=O)N1CCCc2ccccc21)c1ccccc1Br | 822
O=C(NCC(=O)N1CCCc2ccccc21)c1cccc2[nH]ccc12 | 773
CCc1cccc(NC(=O)Cn2ccc3ccc(-c4nnc(C)o4)cc32)c1 | 798
CC(C)S(=O)(=O)N1CCOc2ccc(NC(=O)C3CC3)cc2C1 | 757
COCCN1C(=O)CC[C@]2(C(=O)N(C)Cc3cccnc3)CCCC[C@@H]12 | 544
CCC(=O)N1CCC([C@H]2[C@@H](OC)C(=O)N2C(C)C)CC1 | 644
COC(=O)c1ccc(NC(=O)CSc2nnc(-c3cccs3)o2)cc1 | 648

SMILES | RP-LC retention time [s]
COC(=O)Cc1[nH]c(=O)[nH]c1C(=O)OC | 1100
COc1cccc(NC(=O)CC(=O)Nc2ccc3nc4n(c(=O)c3c2)CCCCC4)c1 | 1210
COc1ccc(-n2ccn3cc(-c4ccc(OC)c(OC)c4)nc3c2=O)cc1 | 723
Cc1ccc(NC(=O)C(=O)NCC2CCN(S(=O)(=O)C3CC3)CC2)cc1F | 828
c1cn(-c2cc(N3CCSCC3)ncn2)cn1 | 591
COc1ccc(OC)c(NC(=O)Cn2cccc2-c2nnc(C3CC3)o2)c1 | 704
COCCCNC(=O)N1CCN(Cc2nc3cc(C(=O)N(C)C)ccc3n2C)CC1 | 560
COC(=O)[C@@H]1Cc2c([nH]c3ccccc23)C(CCc2ccccc2)N1C(C)=O (some centres not stated) | 983
O=C(Cn1c(=O)oc2ccccc21)N1CCC2(CC1)NCCc1c2[nH]c2ccccc12 | 597
CC(=O)c1cccc(NC(=O)Nc2cccc(-c3ccc(N4CCOCC4)nn3)c2)c1 | 655
CC1=C(c2ccc(F)cc2)S(=O)(=O)N=C1N1CCCN(C(=O)C2CCCC2)CC1 | 828
Cc1ccc(C(=O)N2CCC(Nc3ncnc4c3CCC4)C2)s1 (configuration not stated) | 585
CCc1nc2c(NC(=O)NCc3ccccc3)cccn2n1 | 778
Cc1ccc(Cl)cc1N1CCN(c2cc(C(=O)O)c3cc(NC(=O)C(C)(C)C)ccc3n2)CC1 | 830
COc1ccc(C2C(C(=O)N3CCCCC3)=C(C)NC3=C2C(=O)CC(C)(C)C3)cc1OC (configuration not stated) | 675
CCn1c(CCNC(=O)c2ccc(C)c(C)c2)nc2cccnc21 | 661
O=C1CN(C(=O)c2ccccc2F)c2ccccc2N1 | 645
Cc1cccc(C2CC(=O)c3cnc(N4CCN(c5ccccn5)CC4)nc3C2)c1 (configuration not stated) | 737
O=C(NC1(c2nc(-c3ccccc3)no2)CCCCC1)c1ccc(Br)cc1 | 1240
COc1cccc(-c2noc(Cn3ccnc3C)n2)c1OC | 601
CSc1ccc(-c2nc3ccc(Cl)cn3c2Nc2ccccc2C)cc1 | 954
c1cc(-c2noc(-c3ccc4c(c3)OCO4)n2)cc(N2CCCC2)n1 | 690
O=c1n(Cc2cccc(Br)c2)nc2c(S(=O)(=O)N3CCCC3)cccn12 | 887

SMILES | RP-LC retention time [s]
O=C(NCCCN1CCOCC1)C1CCCN(c2nccnc2Sc2ccccc2)C1 (configuration not stated) | 651
Cc1cccc(-c2nnc(-c3cc(S(=O)(=O)N4CCOCC4)ccc3Cl)o2)c1 | 992
O=S(=O)(c1cc(-c2noc(C3CCCC3)n2)cs1)N1CCOCC1 | 1200
CCOC(=O)c1ccc(OC(=O)c2cn(C)c(=O)c3ccccc23)cc1 | 953
Cc1ccccc1N1CCN(Cc2nc(-c3ccc(N4CCSCC4)nc3)no2)CC1 | 801
O=C(NCc1ccc(F)cc1)NC1CCCN(c2cc(-c3ccncc3)[nH]n2)C1 (configuration not stated) | 610
Cc1cc(C)cc(C(=O)N2CCC3(CC2)NC(=O)c2ccccc2N3C)c1 | 804
Cc1ccsc1CN1CCCC(c2nc(-c3cccnc3)n[nH]2)C1 (configuration not stated) | 561
COC(=O)C(C)NC(=O)NCc1cccn1Cc1ccc(F)cc1 (configuration not stated) | 814
Cc1ccccc1S(=O)(=O)N1CC[C@@H]2CN(c3cnccn3)[C@@H]2C1 | 738
O=c1c2nnn(-c3cccc(F)c3)c2ncn1Cc1cccnc1 | 587
O=C(NCCc1cccs1)c1ccc(CN2CC(=O)N3CCCCC3C2=O)cc1 (configuration not stated) | 692
Cc1ccccc1NC(=O)N1CCN(c2ccc(=O)n(-c3ccccc3)n2)CC1 | 744
O=C(Nc1nccs1)C1CCCN(c2ncnc3c2nc2n3CCCCC2)C1 (configuration not stated) | 730
O=C(Nc1ccc(-c2cn3cccnc3n2)cc1)c1ccc(F)c(F)c1 | 647
COc1ccc(-c2noc(C3CC(=O)N(c4ccc(C)c(Cl)c4)C3)n2)c(OC)c1 (configuration not stated) | 982
O=C(CSc1nc2scc(-c3ccccc3)c2c(=O)[nH]1)c1ccccc1 | 936
Cc1nnc(-c2nnc(NCc3ccccc3Cl)c3ccccc23)o1 | 909
Cc1cc(C)n(CC(=O)N(C)CC2(C)CCOCC2)n1 | 612
CC(NC(=O)c1cc2n(n1)CC(C)(C(=O)NC1CCCCC1)N(C)C2=O)c1ccccc1 (configuration not stated) | 800
CCOc1ccccc1NC(=O)c1cn(-c2cc(N3CCC(C)CC3)ncn2)cn1 | 1300
